The record followed here is patent publication US20260216134A1, “CHARGED PI-CONJUGATED MOLECULES FOR THE TREATMENT OF MICROBIAL INFECTIONS” (priority 2023, published 2026).

In the test the test system is Gram-positive strains. The test can be described thus: MIC / MIC50 by broth microdilution in panel of Gram-positive strains. The settings on record: MIC50 over all Gram-positive strains tested (Table 2). The test is classed as cell-based. Here is the method: Antibacterial activity was assessed by determining the minimal inhibitory concentration (MIC) and the minimal bactericidal concentrations (MBC) and by monitoring time-dependent bacterial killing of exponentially growing cells. Bacterial cell suspensions (OD600≈0.02 in cation-adjusted Muller-Hinton Broth) were treated with increasing concentrations of the different molecules. The minimal inhibitory concentration (MIC) was defined as the minimal concentration of the molecule resulting in complete bacterial growth arrest. The minimal bactericidal concentration (MBC) was defined as the lowest concentration of the molecule that killed 99.9% of the inoculum. A molecule was determined to be bactericidal if the ratio of the MBC to the MIC was less than 4 to 6. […] In M. smegmatis, the antibacterial activity of charged pi-conjugated compounds was generally lower.
The MIC values for all Gram-positive strains tested (Table 2) were used to calculate the MIC50, i.e., the minimum inhibitory concentration needed to inhibit the growth of 50% of the tested isolates (FIG. 5A). […] When the average MIC50 values were evaluated, the most susceptible bacterial genera were Streptococcus sp., followed by Staphylococcus sp. In contrast, Propionibacterium sp. had the highest average MIC50 (FIG. 5B).
The broth microdilution method was used to determine the MIC of charged pi-conjugated compounds according to the CLSI guidelines. Charged pi-conjugated compound stock solutions (16 mM) were prepared in dimethyl sulfoxide (DMSO). Serial twofold dilutions of the charged pi-conjugated compounds were freshly prepared using the appropriate liquid media (Table 2), and 100 μL of each dilution was added to the appropriate wells of 96-well microtiter plates. The bacterial inoculum was further diluted in liquid media, and 100 μL was added to each well, resulting in a final cell density of ≈5×10^5 CFU mL^−1. […] A molecule was determined to be bactericidal if the ratio of the MBC to the MIC was less than 4 to 6. […]
A general note: Dilution methods test growth across graded concentrations, often in twofold steps.

In the case of `C[N+]1=C(/C=C/C2=CC(=C/C=C3/N(CCCCCC(=O)NCCCCCCN)c4ccc5ccccc5c4C3(C)C)/CCC2)C(C)(C)c2c1ccc1ccccc21.Cl.[Cl-]` [Cy7.5-amine, Cyanine 7.5-amine], the “antibacterial activity according to MIC50” value is reported as “strongest antibacterial activity”.
